Laboratory results from article PMC12732675, “Catalytically Active Recombinant Cysteine Proteases of Haemonchus contortus: Their Ability to Degrade Host Blood Proteins and Modulate Coagulation” (International Journal of Molecular Sciences, 2025).

Legend:
[1] = biological target: T1, mHcCBP1 (Haemonchus contortus, UniProt A0A7I4Z8W6); assay: ovine fibrinogen degradation, SDS-PAGE; assay type: biochemical; conditions: 10 and 50 uM E-64, 15 min pre-incubation, PBS pH 7.4, 37 °C, 16 h; irreversible, covalent
T1 construct: native signal peptide replaced by CD5 signal; C-terminal His tag; secreted from FreeStyle 293-F cells; Ni-NTA purified
T1 sequence (A0A7I4Z8W6 entry or part of it): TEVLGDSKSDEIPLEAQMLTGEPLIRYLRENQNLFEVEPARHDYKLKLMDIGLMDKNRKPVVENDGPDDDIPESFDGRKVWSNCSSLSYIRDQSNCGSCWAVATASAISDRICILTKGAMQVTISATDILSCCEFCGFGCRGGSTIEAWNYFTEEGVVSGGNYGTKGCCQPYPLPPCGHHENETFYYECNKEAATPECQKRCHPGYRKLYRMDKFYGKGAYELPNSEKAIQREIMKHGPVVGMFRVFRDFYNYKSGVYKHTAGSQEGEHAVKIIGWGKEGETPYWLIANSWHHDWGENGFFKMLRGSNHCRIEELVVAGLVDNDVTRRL

[2] = biological target: T2, mHcCP1c (Haemonchus contortus, UniProt A0A7I4XTV4); assay: ovine fibrinogen degradation, SDS-PAGE; assay type: biochemical; conditions: 10 and 50 uM E-64, 15 min pre-incubation, PBS pH 7.4, 37 °C, 16 h; irreversible, covalent
T2 construct: native signal peptide replaced by CD5 signal; C-terminal His tag; secreted from FreeStyle 293-F cells; Ni-NTA purified
T2 sequence (A0A7I4XTV4 entry or part of it): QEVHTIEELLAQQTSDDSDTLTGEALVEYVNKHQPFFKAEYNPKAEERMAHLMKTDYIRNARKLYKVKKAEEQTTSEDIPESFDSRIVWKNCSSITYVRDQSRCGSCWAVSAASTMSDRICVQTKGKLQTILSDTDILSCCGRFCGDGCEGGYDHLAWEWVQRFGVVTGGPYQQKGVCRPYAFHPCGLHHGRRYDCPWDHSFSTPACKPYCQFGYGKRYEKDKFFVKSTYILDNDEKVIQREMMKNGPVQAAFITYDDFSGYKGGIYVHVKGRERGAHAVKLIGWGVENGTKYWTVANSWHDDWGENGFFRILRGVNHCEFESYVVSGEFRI

CC(C)C[C@H](NC(=O)[C@H]1O[C@@H]1C(=O)O)C(=O)NCCCCN=C(N)N [E-64, L-trans-epoxysuccinyl-leucyl-amido (4-guanidino) butane]
ovine fibrinogen degradation, SDS-PAGE [1]: ablation of the fibrinogenolytic activities of mHcCBP1, mHcCP1c (Figure 7A)
ovine fibrinogen degradation, SDS-PAGE [2]: ablation of the fibrinogenolytic activities of mHcCBP1, mHcCP1c (Figure 7A)
